Assay results from the NIST ThermoML archive (doi:10.1016/j.jct.2004.12.014).
Numbers after ± are expanded uncertainties.

How the values were obtained:
[1] = xn = mol fraction of the nth substance listed; conditions: 318.15 K, 101 kPa, Liquid
[2] = excess molar enthalpy (molar enthalpy of mixing); xn = mol fraction of the nth substance listed; conditions: 318.15 K, 101 kPa, Liquid

CCCCOC(=O)CC [butyl propanoate] + CCCCCCCCCCCCC
Conditions | excess molar enthalpy [kcal/mol] | excess molar volume [m3/mol]
[1], x1 = 0.0406 | – | 1.23e-07 ± 1.6e-08
[1], x1 = 0.0973 | – | 2.84e-07 ± 1.7e-08
[1], x1 = 0.1791 | – | 4.62e-07 ± 1.8e-08
[1], x1 = 0.2615 | – | 6.48e-07 ± 1.9e-08
[1], x1 = 0.3352 | – | 7.42e-07 ± 1.9e-08
[1], x1 = 0.4049 | – | 8.02e-07 ± 1.9e-08
[1], x1 = 0.4702 | – | 8.32e-07 ± 1.9e-08
[1], x1 = 0.5333 | – | 8.34e-07 ± 1.9e-08
[1], x1 = 0.5918 | – | 8.19e-07 ± 1.9e-08
[1], x1 = 0.6472 | – | 7.81e-07 ± 1.9e-08
[1], x1 = 0.6989 | – | 7.36e-07 ± 1.9e-08
[1], x1 = 0.7487 | – | 6.45e-07 ± 1.8e-08
[1], x1 = 0.7961 | – | 5.77e-07 ± 1.8e-08
[1], x1 = 0.84 | – | 4.79e-07 ± 1.8e-08
[1], x1 = 0.8821 | – | 3.67e-07 ± 1.7e-08
[1], x1 = 0.9219 | – | 2.68e-07 ± 1.7e-08
[1], x1 = 0.9617 | – | 1.52e-07 ± 1.6e-08
[2], x1 = 0.0777 | 0.0756 ± 0.00158 | –
[2], x1 = 0.152 | 0.132 ± 0.00239 | –
[2], x1 = 0.2315 | 0.185 ± 0.00335 | –
[2], x1 = 0.3105 | 0.227 ± 0.00382 | –
[2], x1 = 0.3857 | 0.253 ± 0.0043 | –
[2], x1 = 0.4542 | 0.266 ± 0.00454 | –
[2], x1 = 0.5154 | 0.27 ± 0.00454 | –
[2], x1 = 0.5619 | 0.267 ± 0.00454 | –
[2], x1 = 0.6157 | 0.26 ± 0.0043 | –
[2], x1 = 0.6596 | 0.244 ± 0.00406 | –
[2], x1 = 0.7081 | 0.225 ± 0.00382 | –
[2], x1 = 0.7591 | 0.196 ± 0.00335 | –
[2], x1 = 0.8107 | 0.165 ± 0.00287 | –
[2], x1 = 0.857 | 0.132 ± 0.00239 | –
[2], x1 = 0.9081 | 0.0902 ± 0.00179 | –
[2], x1 = 0.9555 | 0.0467 ± 0.00115 | –

CCOC(=O)CC [ethyl propanoate] + CCCCCCC
Conditions | excess molar enthalpy [kcal/mol] | excess molar volume [m3/mol]
[1], x1 = 0.0401 | – | 1.58e-07 ± 1.6e-08
[1], x1 = 0.0797 | – | 3.09e-07 ± 1.7e-08
[1], x1 = 0.1474 | – | 5.09e-07 ± 1.8e-08
[1], x1 = 0.2182 | – | 6.76e-07 ± 1.9e-08
[1], x1 = 0.2873 | – | 7.86e-07 ± 1.9e-08
[1], x1 = 0.3497 | – | 8.53e-07 ± 1.9e-08
[1], x1 = 0.4098 | – | 8.95e-07 ± 2e-08
[1], x1 = 0.5276 | – | 8.77e-07 ± 2e-08
[1], x1 = 0.5897 | – | 8.41e-07 ± 1.9e-08
[1], x1 = 0.6453 | – | 7.71e-07 ± 1.9e-08
[1], x1 = 0.701 | – | 7.23e-07 ± 1.9e-08
[1], x1 = 0.7534 | – | 6.41e-07 ± 1.8e-08
[1], x1 = 0.808 | – | 5.27e-07 ± 1.8e-08
[1], x1 = 0.8554 | – | 4.12e-07 ± 1.7e-08
[1], x1 = 0.9045 | – | 2.9e-07 ± 1.7e-08
[1], x1 = 0.9534 | – | 1.5e-07 ± 1.6e-08
[2], x1 = 0.0724 | 0.0766 ± 0.0016 | –
[2], x1 = 0.1469 | 0.142 ± 0.00263 | –
[2], x1 = 0.2238 | 0.196 ± 0.00335 | –
[2], x1 = 0.294 | 0.234 ± 0.00406 | –
[2], x1 = 0.3653 | 0.261 ± 0.0043 | –
[2], x1 = 0.4286 | 0.273 ± 0.00454 | –
[2], x1 = 0.4855 | 0.277 ± 0.00454 | –
[2], x1 = 0.5345 | 0.274 ± 0.00454 | –
[2], x1 = 0.5733 | 0.267 ± 0.00454 | –
[2], x1 = 0.5847 | 0.264 ± 0.00454 | –
[2], x1 = 0.6302 | 0.254 ± 0.0043 | –
[2], x1 = 0.682 | 0.237 ± 0.00406 | –
[2], x1 = 0.7393 | 0.213 ± 0.00359 | –
[2], x1 = 0.7978 | 0.181 ± 0.00311 | –
[2], x1 = 0.8563 | 0.142 ± 0.00263 | –
[2], x1 = 0.9088 | 0.0966 ± 0.00191 | –
[2], x1 = 0.963 | 0.0455 ± 0.00115 | –

CCOC(=O)CC [ethyl propanoate] + CCCCCCCCC
Conditions | excess molar enthalpy, [2] [kcal/mol] | excess molar volume, [1] [m3/mol]
x1 = 0.0376 | – | 1.65e-07 ± 1.6e-08
x1 = 0.0817 | 0.092 ± 0.00184 | –
x1 = 0.0926 | – | 3.58e-07 ± 1.7e-08
x1 = 0.1719 | 0.168 ± 0.00311 | –
x1 = 0.1744 | – | 6.18e-07 ± 1.8e-08
x1 = 0.2554 | – | 8.2e-07 ± 1.9e-08
x1 = 0.2598 | 0.231 ± 0.00406 | –
x1 = 0.3255 | – | 9.43e-07 ± 2e-08
x1 = 0.3403 | 0.272 ± 0.00454 | –
x1 = 0.3925 | – | 1.022e-06 ± 2e-08
x1 = 0.4145 | 0.297 ± 0.00502 | –
x1 = 0.457 | – | 1.075e-06 ± 2e-08
x1 = 0.4797 | 0.309 ± 0.00526 | –
x1 = 0.4909 | 0.311 ± 0.00526 | –
x1 = 0.523 | – | 1.077e-06 ± 2.1e-08
x1 = 0.5379 | 0.31 ± 0.00526 | –
x1 = 0.5764 | 0.305 ± 0.00502 | –
x1 = 0.5826 | – | 1.066e-06 ± 2e-08
x1 = 0.5876 | 0.303 ± 0.00502 | –
x1 = 0.6277 | 0.291 ± 0.00478 | –
x1 = 0.6348 | – | 1.027e-06 ± 2e-08
x1 = 0.6791 | 0.271 ± 0.00454 | –
x1 = 0.6882 | – | 9.47e-07 ± 2e-08
x1 = 0.732 | 0.243 ± 0.00406 | –
x1 = 0.7398 | – | 8.52e-07 ± 1.9e-08
x1 = 0.7883 | 0.207 ± 0.00359 | 7.57e-07 ± 1.9e-08
x1 = 0.8344 | – | 6.26e-07 ± 1.8e-08
x1 = 0.8451 | 0.163 ± 0.00287 | –
x1 = 0.878 | – | 5.01e-07 ± 1.8e-08
x1 = 0.9016 | 0.111 ± 0.00213 | –
x1 = 0.9181 | – | 3.41e-07 ± 1.7e-08
x1 = 0.9517 | 0.0589 ± 0.00134 | –
x1 = 0.9584 | – | 1.81e-07 ± 1.6e-08

CCCCCCCCCCCCCCCCC [heptadecane] + CCC(=O)OC
Conditions | excess molar enthalpy [kcal/mol] | excess molar volume [m3/mol]
[1], x2 = 0.0755 | – | 3.32e-07 ± 1.7e-08
[1], x2 = 0.1644 | – | 6.94e-07 ± 1.9e-08
[1], x2 = 0.3049 | – | 1.182e-06 ± 2.1e-08
[1], x2 = 0.409 | – | 1.452e-06 ± 2.2e-08
[1], x2 = 0.5004 | – | 1.581e-06 ± 2.3e-08
[1], x2 = 0.5739 | – | 1.623e-06 ± 2.3e-08
[1], x2 = 0.6379 | – | 1.592e-06 ± 2.3e-08
[1], x2 = 0.6942 | – | 1.504e-06 ± 2.2e-08
[1], x2 = 0.7425 | – | 1.39e-06 ± 2.2e-08
[1], x2 = 0.7831 | – | 1.271e-06 ± 2.1e-08
[1], x2 = 0.8219 | – | 1.128e-06 ± 2.1e-08
[1], x2 = 0.8553 | – | 9.81e-07 ± 2e-08
[1], x2 = 0.8846 | – | 8.56e-07 ± 1.9e-08
[1], x2 = 0.9369 | – | 5.66e-07 ± 1.8e-08
[1], x2 = 0.9596 | – | 4.18e-07 ± 1.7e-08
[1], x2 = 0.9803 | – | 2.34e-07 ± 1.7e-08
[2], x2 = 0.0946 | 0.132 ± 0.00239 | –
[2], x2 = 0.2186 | 0.277 ± 0.00478 | –
[2], x2 = 0.3238 | 0.387 ± 0.00645 | –
[2], x2 = 0.4115 | 0.457 ± 0.00741 | –
[2], x2 = 0.4797 | 0.492 ± 0.00813 | –
[2], x2 = 0.5289 | 0.508 ± 0.00837 | –
[2], x2 = 0.5687 | 0.513 ± 0.00837 | –
[2], x2 = 0.5996 | 0.514 ± 0.00837 | –
[2], x2 = 0.6291 | 0.509 ± 0.00837 | –
[2], x2 = 0.6637 | 0.499 ± 0.00813 | –
[2], x2 = 0.6974 | 0.479 ± 0.00789 | –
[2], x2 = 0.7327 | 0.451 ± 0.00741 | –
[2], x2 = 0.7677 | 0.417 ± 0.00693 | –
[2], x2 = 0.8042 | 0.371 ± 0.00621 | –
[2], x2 = 0.8381 | 0.328 ± 0.0055 | –
[2], x2 = 0.8741 | 0.271 ± 0.00454 | –
[2], x2 = 0.909 | 0.214 ± 0.00382 | –
[2], x2 = 0.9409 | 0.148 ± 0.00287 | –
[2], x2 = 0.9721 | 0.0753 ± 0.00179 | –
